Consider five compounds from US5840684A, “Glycopeptide antibiotic derivatives” (Eli Lilly and Company, priority 1995, dated 1998).

In assay [1] the test system is Streptococcus pneumoniae P1. The assay is described as follows: broth micro-dilution MIC. In kind it is cell-based. On the procedure: (§1) The formula I compounds have in vitro and in vivo activity against Gram-positive pathogenic bacteria. The MIC's were determined using a standard broth micro-dilution assay.
On the technique in general: Dilution methods test growth across graded concentrations, often in twofold steps.

In assay [2] the test system is Staphylococcus haemolyticus 415. Kind of assay: broth micro-dilution MIC. In kind it is cell-based. Here is the method:
as §1

The subject of another assay is Entercoccus faecium 180. The assay is described as follows: broth micro-dilution MIC. As to conditions: Entercoccus faecium 180. In kind it is cell-based. On the procedure: as §1
A further assay relates to Escherichia coli EC14. The assay is described as follows: broth micro-dilution MIC. The assay is classed as cell-based. Here is the method:
as §1

In assay [3] the test system is Staphylococcus haemolyticus 105. Kind of assay: broth micro-dilution MIC. The assay is classed as cell-based. On the procedure: as §1
Assay [4] relates to Enterococcus gallinarum 245. Kind of assay: broth micro-dilution MIC. The assay is classed as cell-based. The following applies: Enterococcus gallinarum 245. Here is the method:
as §1

Assay [5] has as its system Staphylococcus aureus SA1199B. The assay is classed as cell-based. Here is the method: (§2) The MIC's were determined using a standard broth micro-dilution assay.
Assay [6] concerns Staphylococcus aureus X400. The assay is described as follows: broth micro-dilution MIC. The assay is classed as cell-based. On the procedure: as §2
Assay [7] relates to Staphylococcus aureus X778. Kind of assay: broth micro-dilution MIC. The assay is classed as cell-based. Here is the method:
as §2

Assay [8] relates to Streptococcus pyogenes C203. Kind of assay: broth micro-dilution MIC. In kind it is cell-based. Here is the method:
as §2

Assay [9] has as its system Staphylococcus aureus SA1199. Kind of assay: broth micro-dilution MIC. The assay is classed as cell-based. On the procedure:
as §2

Assay [10] deals with Entercoccus faecium 180-1. Kind of assay: broth micro-dilution MIC. In kind it is cell-based. On the procedure: as §2
Assay [11] concerns vancomycin-resistant enterococci. The assay is described as follows: broth micro-dilution, mean geometric MIC. The assay is classed as cell-based, Enterococcus faecium and Enterococcus faecalis. The following applies: enterococci, 24-hour incubation.
The test system of assay [12] is vancomycin-susceptible enterococci. The assay is described as follows: broth micro-dilution, mean geometric MIC. In kind it is cell-based, Enterococcus faecium and Enterococcus faecalis. As to conditions: enterococci, 24-hour incubation.
In the next assay the test system is Entercoccus faecium 2041. The assay is described as follows: broth micro-dilution MIC. The assay is classed as cell-based. The following applies: Entercoccus faecium 2041. On the procedure:
as §1

Assay [13] deals with Staphylococcus epidermidis 270. Kind of assay: broth micro-dilution MIC. The assay is classed as cell-based. Here is the method: as §1
For assay [14], the system named is Staphylococcus aureus SA1199A. The assay is described as follows: broth micro-dilution MIC. The assay is classed as cell-based. On the procedure: as §2
Assay [15] deals with Staphylococcus aureus 447. The assay is described as follows: broth micro-dilution MIC. In kind it is cell-based. Here is the method:
as §2

Assay [16] concerns Staphylococcus aureus 491. The assay is described as follows: broth micro-dilution MIC. The assay is classed as cell-based. Here is the method: as §2
A further assay has as its system Entercoccus faecium 276. The assay is described as follows: broth micro-dilution MIC. In kind it is cell-based. On the procedure: as §2
Assay [17] concerns Staphylococcus aureus 489. The assay is described as follows: broth micro-dilution MIC. The assay is classed as cell-based. On the procedure:
as §2

Assay [18] concerns Staphylococcus aureus 446. The assay is described as follows: broth micro-dilution MIC. The assay is classed as cell-based. On the procedure: as §2
Assay [19] relates to Haemophilus influenzae RD. The assay is described as follows: broth micro-dilution MIC. The assay is classed as cell-based. As to conditions: Haemophilus influenzae RD. On the procedure:
as §1

Assay [20] has as its system Staphylococcus aureus S13E. In kind it is cell-based. Here is the method:
as §2

SMILES strings stand for the structures. Converted amounts (≈) assume the structure as drawn.

Take `CNC(CC(C)C)C(=O)NC1C(=O)NC(CC(N)=O)C(=O)NC2C(=O)NC3C(=O)NC(C(=O)NC(C(=O)O)c4cc(O)cc(O)c4-c4cc3ccc4O)C(OC3CC(C)(N)C(O)C(C)O3)c3ccc(c(Cl)c3)Oc3cc2cc(c3OC2OC(CO)C(O)C(O)C2OC2CC(C)(NCc3c(C)c(C)c(C)c(C)c3C)C(O)C(C)O2)Oc2ccc(cc2Cl)C1O` (centres unmarked) [Compound 73]: the MIC in assay [1] was not above 0.06 µg/mL; in assay [2], 2 µg/mL (≈ 1.14 µM); against Entercoccus faecium 180, 0.5 µg/mL (≈ 0.285 µM); in the assay on Escherichia coli EC14, more than 64 µg/mL; in assay [3] it was 0.5 µg/mL (≈ 0.285 µM); in assay [4], 2 µg/mL (≈ 1.14 µM). Moreover, the MIC in assay [5] was not above 0.06 µg/mL; in assay [6] it was 0.5 µg/mL (≈ 0.285 µM); in [7] it was 1 µg/mL (≈ 0.571 µM); in [8] it was not above 0.06 µg/mL; in assay [9], 0.5 µg/mL (≈ 0.285 µM); in assay [10], not above 0.06 µg/mL. Also, in assay [11], the “mean geometric MIC, Vancomycin Resistant Strains” value stood at 11 µg/mL.

As to `CNC(CC(C)C)C(=O)NC1C(=O)NC(CC(N)=O)C(=O)NC2C(=O)NC3C(=O)NC(C(=O)NC(C(=O)O)c4cc(O)cc(O)c4-c4cc3ccc4O)C(OC3CC(C)(N)C(O)C(C)O3)c3ccc(c(Cl)c3)Oc3cc2cc(c3OC2OC(CO)C(O)C(O)C2OC2CC(C)(NCc3ccc([N+](=O)[O-])cc3)C(O)C(C)O2)Oc2ccc(cc2Cl)C1O` (centres unmarked) [Compound 78], the “mean geometric MIC, Vancomycin Sensitive Strains” value in [12] worked out at 0.76 µg/mL. Moreover, the MIC was not above 0.06 µg/mL in assay [1]; 16 µg/mL (≈ 9.26 µM) in [2]; 1 µg/mL (≈ 0.579 µM) against Entercoccus faecium 180; not above 0.06 µg/mL against Entercoccus faecium 2041; 0.5 µg/mL (≈ 0.289 µM) in assay [13]; more than 64 µg/mL against Escherichia coli EC14. Moreover, the MIC in assay [3] was 2 µg/mL (≈ 1.16 µM); in assay [4], 0.125 µg/mL (≈ 0.0724 µM); in [5], not above 0.06 µg/mL; in assay [14] it was not above 0.06 µg/mL; in [6], not above 0.06 µg/mL; in assay [7], not above 0.06 µg/mL. In addition, the MIC was not above 0.06 µg/mL in assay [15]; not above 0.06 µg/mL in assay [8]; 0.125 µg/mL (≈ 0.0724 µM) in assay [9]; 0.25 µg/mL (≈ 0.145 µM) in [16]; 0.125 µg/mL (≈ 0.0724 µM) against Entercoccus faecium 276; not above 0.06 µg/mL in assay [10]. The MIC is not above 0.06 µg/mL in assay [17] and 2 µg/mL (≈ 1.16 µM) in [18]. Also, in [11], the “mean geometric MIC, Vancomycin Resistant Strains” value was determined as 16 µg/mL.

As to `CNC(CC(C)C)C(=O)NC1C(=O)NC(CC(N)=O)C(=O)NC2C(=O)NC3C(=O)NC(C(=O)NC(C(=O)O)c4cc(O)cc(O)c4-c4cc3ccc4O)C(OC3CC(C)(N)C(O)C(C)O3)c3ccc(c(Cl)c3)Oc3cc2cc(c3OC2OC(CO)C(O)C(O)C2OC2CC(C)(NCc3cccc(Oc4cccc(C(F)(F)F)c4)c3)C(O)C(C)O2)Oc2ccc(cc2Cl)C1O` (centres unmarked) [Compound 203], the “mean geometric MIC, Vancomycin Sensitive Strains” value in assay [12] was 0.036 µg/mL. Also, the MIC is not above 0.06 µg/mL in assay [1]; 2 µg/mL (≈ 1.09 µM) in assay [2]; 0.125 µg/mL (≈ 0.0678 µM) against Entercoccus faecium 180; 0.25 µg/mL (≈ 0.136 µM) with Entercoccus faecium 2041; 0.5 µg/mL (≈ 0.271 µM) in assay [13]; 1 µg/mL (≈ 0.543 µM) in assay [3]. The MIC worked out at 16 µg/mL (≈ 8.68 µM) in assay [19]; 2 µg/mL (≈ 1.09 µM) in [4]; 2 µg/mL (≈ 1.09 µM) in [20]; 1 µg/mL (≈ 0.543 µM) in assay [5]; 0.5 µg/mL (≈ 0.271 µM) in [14]; 1 µg/mL (≈ 0.543 µM) in assay [6]. Besides, the MIC was 1 µg/mL (≈ 0.543 µM) in assay [7]; 1 µg/mL (≈ 0.543 µM) in assay [15]; not above 0.06 µg/mL in assay [8]; 2 µg/mL (≈ 1.09 µM) in [9]; 1 µg/mL (≈ 0.543 µM) in assay [16]; 0.5 µg/mL (≈ 0.271 µM) in the assay on Entercoccus faecium 276. Also, the figures for the MIC in assay [10], in assay [17] and in [18] were not above 0.06 µg/mL, 0.5 µg/mL (≈ 0.271 µM) and 0.5 µg/mL (≈ 0.271 µM), respectively. In addition, the “mean geometric MIC, Vancomycin Resistant Strains” value in assay [11] is 1.0 µg/mL.

For the compound `CNC(CC(C)C)C(=O)NC1C(=O)NC(CC(N)=O)C(=O)NC2C(=O)NC3C(=O)NC(C(=O)NC(C(=O)O)c4cc(O)cc(O)c4-c4cc3ccc4O)C(OC3CC(C)(N)C(O)C(C)O3)c3ccc(c(Cl)c3)Oc3cc2cc(c3OC2OC(CO)C(O)C(O)C2OC2CC(C)(NCc3ccc(OCCCCCCc4ccccc4)cc3)C(O)C(C)O2)Oc2ccc(cc2Cl)C1O` (centres unmarked) [Compound 219], the “mean geometric MIC, Vancomycin Sensitive Strains” value in assay [12] is 0.044 µg/mL. For the same compound, the MIC is not above 0.06 µg/mL in assay [1]; 2 µg/mL (≈ 1.08 µM) in [2]; 1 µg/mL (≈ 0.538 µM) against Entercoccus faecium 180; 2 µg/mL (≈ 1.08 µM) against Entercoccus faecium 2041; 4 µg/mL (≈ 2.15 µM) in assay [13]; 2 µg/mL (≈ 1.08 µM) in [3]. Further, the MIC in [19] came out at 32 µg/mL (≈ 17.2 µM); in assay [4] it was 2 µg/mL (≈ 1.08 µM); in assay [20], 8 µg/mL (≈ 4.3 µM); in [5] it was 8 µg/mL (≈ 4.3 µM); in assay [14], 1 µg/mL (≈ 0.538 µM); in assay [6], 8 µg/mL (≈ 4.3 µM). Besides, the MIC is 8 µg/mL (≈ 4.3 µM) in assay [7]; 8 µg/mL (≈ 4.3 µM) in [15]; not above 0.06 µg/mL in assay [8]; 4 µg/mL (≈ 2.15 µM) in [9]; 4 µg/mL (≈ 2.15 µM) in assay [16]; 2 µg/mL (≈ 1.08 µM) against Entercoccus faecium 276. Further, the figures for the MIC in assay [10], in assay [17] and in assay [18] were 1 µg/mL (≈ 0.538 µM), 8 µg/mL (≈ 4.3 µM) and 8 µg/mL (≈ 4.3 µM), respectively. Also, the “mean geometric MIC, Vancomycin Resistant Strains” value in [11] was 0.71 µg/mL.

`CNC(CC(C)C)C(=O)NC1C(=O)NC(CC(N)=O)C(=O)NC2C(=O)NC3C(=O)NC(C(=O)NC(C(=O)O)c4cc(O)cc(O)c4-c4cc3ccc4O)C(OC3CC(C)(N)C(O)C(C)O3)c3ccc(c(Cl)c3)Oc3cc2cc(c3OC2OC(CO)C(O)C(O)C2OC2CC(C)(NCCCCCCCCCC#Cc3ccccc3)C(O)C(C)O2)Oc2ccc(cc2Cl)C1O` (centres unmarked) [Compound 236]: the “mean geometric MIC, Vancomycin Sensitive Strains” value in assay [12] stood at 0.5 µg/mL. The MIC was not above 0.06 µg/mL in [1]; 4 µg/mL (≈ 2.2 µM) in assay [2]; 1 µg/mL (≈ 0.55 µM) against Entercoccus faecium 180; 1 µg/mL (≈ 0.55 µM) in the assay with Entercoccus faecium 2041; 2 µg/mL (≈ 1.1 µM) in assay [13]; 4 µg/mL (≈ 2.2 µM) in assay [3]. For the same compound, the MIC in assay [19] was 32 µg/mL (≈ 17.6 µM); in assay [4] it was 4 µg/mL (≈ 2.2 µM); in assay [20], 4 µg/mL (≈ 2.2 µM); in [5], 4 µg/mL (≈ 2.2 µM); in assay [14], 2 µg/mL (≈ 1.1 µM); in assay [6], 2 µg/mL (≈ 1.1 µM). For the same compound, the MIC is 2 µg/mL (≈ 1.1 µM) in assay [7]; 4 µg/mL (≈ 2.2 µM) in assay [15]; not above 0.06 µg/mL in assay [8]; 4 µg/mL (≈ 2.2 µM) in assay [9]; 4 µg/mL (≈ 2.2 µM) in [16]; 2 µg/mL (≈ 1.1 µM) with Entercoccus faecium 276. In addition, the MIC came to 1 µg/mL (≈ 0.55 µM) in [10], 4 µg/mL (≈ 2.2 µM) in assay [17] and 1 µg/mL (≈ 0.55 µM) in assay [18]. Besides, the “mean geometric MIC, Vancomycin Resistant Strains” value in assay [11] came out at 1.4 µg/mL.
